Paper PMC4627230, “Identification of TAX2 peptide as a new unpredicted anti-cancer agent” (Oncotarget, 2015)
“Also recorded” adds a separate entry of the source.

Tests used:
[1] = tested on: TSP-1 binding to β1 integrin; test: Co-immunoprecipitation TSP-1 with β1 integrin; format: cell-based, human; details: HUVECs, 100 μM; total protein lysates
Protocol: (§1) Protein lysates prepared in ice-cold lysis buffer or conditioned media were subjected to immunoprecipitation assay using the Pierce Co-IP kit (Thermo Fisher Scientific) according to the manufacturer's protocol. 10 μg of antibody (anti CD47, anti-CD36, anti-FGF2, anti-VEGF, anti-β1 integrin and anti-LRP1 heavy chain) or non-specific IgGs were incubated with the delivered resin and covalently coupled. The antibody-coupled resin was incubated with whole HUVEC protein lysate overnight at 4°C under gentle agitation (no cross-linker was used to stabilize protein complexes before HUVEC lysis). Then the resin was washed and the protein complexes bound to the antibody were eluted. Immunoprecipitated protein complexes were solubilized under denaturing and reducing conditions, heated to 100°C for 5 min and analyzed by immunoblotting as described above. […]
(§2) receptors. HUVECs were treated with TAX2 (100 μM) or scrambled peptide (Ctrl, 100 μM). FGF-2 and VEGF were immunoprecipitated from conditioned media using anti-FGF-2 (clone C-18) and anti-VEGF (clone C-1), respectively. β1 integrin and LRP-1 were immunoprecipitated from total protein lysates using anti-β1 integrin (clone BV7) and anti-LRP-1 heavy chain (clone 8G1), respectively. […] Histogram represents the quantification of relative ligand-bound TSP-1 under TAX2 treatment as compared to control. […]

TSP-1 binding to FGF-2 = test: Co-immunoprecipitation TSP-1 with FGF-2; format: cell-based, human; details: HUVECs, 100 μM; conditioned media
Protocol: as §1, §2

[2] = tested on: cGMP production by endothelial cells (HUVECs); test: Intracellular cGMP after NO stimulation; format: cell-based, human; details: 100 μM for 15 min, then 10 μM DEA-NONOate 10 min, 1 mM IBMX, n = 3 in triplicate, p < 0.05
Protocol: HUVECs (1 × 10^4 per well) were grown over 24 h in 96-well plates containing EGM-2 full growth medium and then serum-starved in EBM-2 containing 0.1% (v/v) BSA over additional 24 h. Cells were then pre-treated during 15 min with 100 μM TAX2 in EBM-2 without additives plus 0.1% (v/v) BSA before treatment with NO donor in presence of 1 mM IBMX as a phosphodiesterases inhibitor. After 10 min, intracellular cGMP levels were determined according to the manufacturer's instructions using an enzyme immunoassay kit (Amersham Biosciences).
Supplementary Figure S2: TAX2 inhibits intracellular cGMP production by endothelial cells under NO stimulation. HUVECs (1 × 10^4 per well) were seeded in 96-well plates, maintained in EGM-2 growth medium for 24 h, and then serum-starved for an additional 24 h in EBM-2 containing 0.1% (v/v) BSA. Endothelial cells were then pre-treated with 100 μM TAX2 for 15 min before addition of 10 μM DEA-NONOate. After 10 min, intracellular cGMP was quantified as described in Material & Methods. Results are expressed as percent compared to control (n = 3, each performed in triplicate; t test; * p < 0.05).
(also on this page, place not known: www.impactjournals.com/oncotarget/ Oncotarget, Materials 2015 Supplementary *p) […]

C57BL/6 mice = test: Tolerability in melanoma-bearing mice (μCT of healthy organs, dissection); format: in vivo, mouse; details: 10 mg/kg i.p. days 3, 5, 7, dissections, data not shown
Protocol: For the subcutaneous melanoma tumor model, suspensions of B16F1 cells (2.5 × 10^5 cells in 100 μL RPMI-1640 medium) were subcutaneously injected into the left flank of different randomized series of syngeneic C57BL/6 mice (n = 8–10 per group), as previously described. Intraperitoneal administrations of peptide (10 mg/kg mouse weight) or controls (physiological serum 0.9% (w/v) NaCl or a scrambled peptide) were performed at days 3, 5 and 7. In human pancreatic carcinoma xenograft experiments, 3 × 10^6 MIA PaCa-2 cells/mouse were implanted subcutaneously into the left flank of BALB/C athymic nude mice, then TAX2 intraperitoneal treatments (10 mg/kg mouse weight) were performed 3 times a week during 4 weeks starting at day 10 after tumor cells inoculation. Tumor volume was determined according to v = 0.5 A × B^2, where A denotes the largest dimension of the tumor and B represents the smallest dimension. […]
Animals were anesthetized by isoflurane (Forene, Abbott France, Rungis, France) inhalation (3% for induction and 1–1.5% for maintenance) and then after placed in a carbon fibers bed. […] Analysis of reconstructed images and quantification of the vascular network were performed using Amira 5.4.3 software.

TSP-1 binding to LRP-1 = test: Co-immunoprecipitation TSP-1 with LRP-1; format: cell-based, human; details: HUVECs, 100 μM; total protein lysates
Protocol: as §1, §2

TSP-1 binding to VEGF = test: Co-immunoprecipitation TSP-1 with VEGF; format: cell-based, human; details: HUVECs, 100 μM; conditioned media
Protocol: as §1, §2

CEVSQLLKGDAC (disulfide) [TAX2, CD47-derived cyclic disulfide dodecapeptide …]
TSP-1 binding to β1 integrin [1]: does not affect
TSP-1 binding to FGF-2 (TSP-1 binding to FGF-2): does not affect
decrease of cGMP production after NO stimulation [2]: around 25%
thrombosis, hemorrhage or embolism in melanoma-bearing mice (C57BL/6 mice): neither μCT imaging of healthy organs nor mice dissections highlighted any sign of thrombosis, hemorrhage or embolism; also recorded: no signs of thrombosis, hemorrhage or embolism were observed in healthy organs
TSP-1 binding to LRP-1 (TSP-1 binding to LRP-1): does not affect
TSP-1 binding to VEGF (TSP-1 binding to VEGF): does not affect
